Entries after “also recorded” stand apart in the source; their conditions may differ. Each block holds one compound with its values, some of them ahead of it.
Columns and labels:
[1] = test system: Bcl-xl protein; test: up-regulation of Bcl-xl expression (immunoprecipitation, western blot); format: cell-based
Description: When the subject compounds were tested for anti-apoptotic effect was evaluated, these antibodies were used: Anti-Bcl-X1/s antibody (Santa Cruz Biotechnology, SC-1041), Anti-Bcl-X1 antibody (Santa Cruz Biotechnology, SC8392)
A number of molecules of the subject invention were evaluated in in vitro systems that reflect the condition of cerebral ischemia and metabolic stress. Firstly, it is known that one of the mechanisms by which EPO prevents neuronal apoptosis is by up-regulating the expression levels of Bcl-x1 protein, which is a well-described anti-apoptotic protein. Thus, cells-lines that are known to be EPO responsive (UT-7 and TF-1, used in previous studies) were used as a cellular system to examine the small molecules' anti-apoptotic activity through EPO-R.
The evaluation was performed by starving the cells, stimulating the cells with compounds at appropriate concentrations (or no stimulation for control samples) and immunoprecipitating the cell lysates with antibody specific to both forms (short and long) of Bcl-x1 protein. The amount of Bcl-x1 (long protein form, known to have anti-apoptotic activity) protein was evaluated by western blot analysis.

[2] = test system: P-19 cells; test: cell survival of P-19 cells after withdrawal of serum; format: cell-based; details: P19 cells; treated 24 hours before, serum withdrawn for 48 hours
Description: Experiments were performed according to the described protocol. The anti-apoptotic effect of the subject small molecules was evaluated in P-19 cells (a neural-like embryonal carcinoma cell line) that undergo apoptosis upon withdrawal of serum. Briefly, cells were treated with small molecules for 24 hours prior to serum withdrawal. Serum was withdrawn for 48 hours in the presence or absence of a subject small molecule (EM5 and E5A24). At the end of that period, cell survival was evaluated. […] This Figure is representative of the experiment and of the subject small molecules. The experiments were performed according to literature procedures (Siren et.al., Proc. Nat. Acad. Sci. 98, 4044, 2001). Cell survival was determined according to the protocol described for cellular proliferation.

[3] = test system: TF-1 and UT-7 cells; test: biological testing in cell lines (cell proliferation and cell signaling); format: cell-based; details: biological testing in cell line
From the text: Compounds identified in the initial screen were further tested for their biological activity in two assays: a cell proliferation assay and a cell signaling assay in TF-1 and UT-7 cells. The hit rate in cell proliferation was 0.16%; hit rate in cell signaling was 0.25%.
Compounds identified in the initial screen were further tested for their biological activity in two assays: a cell proliferation assay and a cell signaling assay in TF-1 cells. The hit rate in cell proliferation was 0.16%; hit rate in cell signaling was 0.25%.

[4] = test system: mouse bone marrow cells; test: formation of erythroid colonies from mouse bone marrow in methylcellulose; format: cell-based
Description: (§1) Mouse or human bone marrow cells were stimulated in methylcellulose for 7 days (mouse) or 14 days (human) with non-peptide EPO-R modulators. Formation of erythroid colonies was observed. (See FIGS. 6 to 8)
Bone marrow cells were isolated from mouse femurs. Cells were washed twice with PBS and resuspended to a density of 6.5×10^6 cells/ml in media. 300 μl (6.5×10^5/ml) of cells were mixed with 1.5 ml of methylcellulose media (Stemcell Technology) to which the desired concentration of compound or the EPO was added. The mixture was poured onto 35 mm dishes; all the conditions are performed in duplicates. The incubation was for […] at 37° C., 5% CO2. The colonies were scored on day seven.
After thawing methylcellulose overnight, the next morning, 20 ml of Iscove's MDM+2%FBS is added to the bottle to achieve 100 ml total. The bottle is mixed for at least 30 seconds and settled for about 10 minutes. 10 cc syringes are used to aliquot 3 ml per minisorp tube.

[5] = test system: human bone marrow cells; test: formation of erythroid colonies from human bone marrow in methylcellulose; format: cell-based
Description: as §1
(1) Dilute human bone marrow 1:1 with sterile PBS. (2) Slowly layer bone marrow into 50 ml tubes containing 20 ml of LSM Lymphocyte separation medium (ICN/Cappel—cat #50494). 50 ml bone marrow will yield 2 tubes. (3) Spin tubes at 2000 rpm for 30 minutes with brake off. (4) Slowly take out the middle layer using a 10 ml pipette and transfer into a new 50 ml tube. (5) Add PBS+0.5% BSA+5 mM EDTA to tube for washing. (6) Spin tube for 5 minutes at speed 4 with brake on. (7) Repeat wash step 2 more times. (8) After 3rd wash, resuspend pellet in SF Iscoves' MDM medium. (9) Count by diluting cells in 3% acetic acid. (10) Dilute cells to desired concentration (5×10^5 cells/ml) and seed onto methylcellulose.
(1) Tubes containing 3.0 ml of methylcellulose medium (Stemcell Technology, cat # H4230) supplemented with 50 ng/ml hSCF are prepared. (Alternatively the methylcellulose could be supplemented with 50 ng/ml hSCF, 20 ng/ml of hIL-3 and hIL-6). (2) Compounds or EPO of desired concentrations are added to the tubes. “Control” tubes or tubes that will receive EPO are supplemented with DMSO to a final concentration of 0.16%. […] Colonies are scored on day twelve.

[6] = test system: cortical neurons; test: glutamate-induced neuronal death in cultured cortical neurons; format: cell-based, rats; details: 300 μM glutamate for 24 hours
Description: Primary cultured cells were used as a model to evaluate the subject small molecule effect on CNS. Glutamate neurotoxicity can be most directly studied using neurons prepared from the brain at the late embryonic stage and subsequently cultured for maturation. To examine the effect of the subject small molecules (E5A24 and E5A29) on glutamate-induced neuronal death, cortical neurons isolated from embryonic day 18 rats, were cultured for 10 days. Subsequently, neurons were treated for 24 hours with or without the subject small molecules, and further exposed to 300 μM glutamate for 24 hours. After glutamate was washed out, the cells were cultured for another 24 hours. During the glutamate challenge and subsequent culture, the subject small molecules were absent. Finally, the cell viability was examined. […] Experiments were performed according to the literature (Morishita et. al., Neuroscience 76, 105, 1997).

[7] = test system: TF-1 cells; test: cell proliferation; format: cell-based; details: 96 hours
Description: TF-1 cells were stimulated for 96 hours with different non-peptide EPO-R modulators, and it was observed that the non-peptide EPO binding molecules stimulated cellular proliferation in dose-responsive manner and to the extent of the natural hormone.

[8] = test system: EPO-Receptor down stream signaling pathway; test: in vitro signaling (phosphorylation of EPO-R, JAK2, STAT1, STAT3, STAT5); format: cell-based; details: UT-7 cells
Description: UT-7 cells were grown in Minimal Essential Medium Alpha (MEM-α) containing 20% FBS, 1.5 g/L NaHCO3, 5 ng/ml GM-CSF, and 100U Penicillin/100 μg/ml Streptomycin Sulfate (“P/S”), in T150 flasks (60 ml/flask) at 37° C., 5% CO2 to a density of no more than 5×10^5 cells/ml. The cells were starved overnight in MEM-α containing 10% FBS, 1.5 g/L NaHCO3 and P/S in T150 flasks (60 ml/flask) at a density of 5×10^5 cells/ml, in 5% CO2, 37° C. The cells were then centrifuged in a swinging-bucket rotor at 200×g for 5 minutes at room temperature. The supernatant was removed, and the cells pooled into one 50 ml conical tube. The cells were washed twice with serum-free medium (MEM-α containing 1.5 g/L NaHCO3 and P/S). After the last wash, the cells were resuspended to a density of 1×10^7 cells/ml in serum-free medium. The cells were then placed in 15 ml conical tubes in 1 ml aliquots and incubated with the caps loosened for 1 hour at 37° C., 5% CO2. Every 10 minutes, the lower portion of each tube was tapped (flicked) several times to prevent the cells from settling (please note, this step is very important!)
It was also observed that EPO-R was phosphorylated when stimulated with non-peptide EPO-R modulators. (See FIG. 4) […]

SMILES: Cc1cc(NCC2CC2)n2nc(Nc3cc(Cl)ccc3C)nc2n1 [EM5]
Bcl-xl expression ([1]; TF-1 cells): up-regulation of Bcl-xl expression | Bcl-xl expression ([1]; UT-7 cells): up-regulation of Bcl-xl expression | Bcl-x1 protein up-regulation ([1]; both cell lines (UT-7 and TF-1)): induced up-regulation of Bcl-x1 protein in a dose-responsive manner | cell viability / protection from apoptosis after withdrawal of serum [2]: protect cells from apoptosis; also recorded: increased cell viability

SMILES: Cn1ncc(S(=O)Oc2ccccc2)c(Cl)c1=O (centres unmarked) [Cmpnd E6]
maximum activity compared to EPO natural hormone [3]: maximum activity comparable to that of the maximum activity of EPO | erythroid colony formation (CFU-e) [4]: stimulate CFU-e formation to the same extent as EPO | erythroid colony formation (CFU-e) [5]: stimulate CFU-e formation to the same extent as EPO

SMILES: Cc1n[nH]c2c1C(c1ccco1)C1=C(CC(C)(C)CC1=O)N2 (centres unmarked) [Cmpnd E5A29]
cell survival of cortical neurons after glutamate challenge [6]: prevented glutamate induced neuronal death in a dose-responsive manner; also recorded: increased cell survival | increase of cell survival ([6]; cortical neurons): 60%

activation of EPO-R [8]: activation of EPO-R
SMILES: Cc1ccc(Cl)cc1Nc1nc2nc(C)c(NCC3CC3)cn2n1 [Cmpnd E5]
maximum activity compared to EPO natural hormone [3]: maximum activity comparable to that of the maximum activity of EPO | cellular proliferation [7]: proliferative effect | erythroid colony formation (CFU-e) [4]: stimulate CFU-e formation to the same extent as EPO | erythroid colony formation (CFU-e) [5]: stimulate CFU-e formation to the same extent as EPO

— patent publication US7037902B2, “Affinity small molecules for the EPO receptor” (Receptron, Inc., priority 2002, dated 2006)
